Measurements: patent US20190175534A1, “PHARMACEUTICAL COMPOSITIONS COMPRISING DGLA AND USE OF SAME” (DS Biopharma Limited, priority 2016, published 2019)

Assays:
[1] = system: patients with moderate to severe atopic dermatitis; experiment: Phase II placebo-controlled study of oral DS107G: efficacy (IGA, EASI, SCORAD, pruritus VAS, BSA); type: in vivo, human; settings: for IGA Non-Responders at Week 8, (%) / IGA Responders at Week 8, (%) / IGA Score Week 8: 0 - Clear, (%) / IGA Score Week 8: 1 - Almost Clear, (%) / IGA Score Week 8: 2 - Mild, (%) / IGA Score Week 8: 3 - Moderate, (%) / IGA Score Week 8: 4 - Severe, (%) / IGA Score Week 8: 5 - Very Severe, (%): ITT; for Visual analog scale of pruritus, Week 8/ET Actual, Mean / Visual analog scale of pruritus, Week 8/ET Actual, Median: oral 2 g once daily
Procedure: A randomised, double-blind, placebo-controlled, phase II study was performed to assess the efficacy and safety of orally administered DS107G (DGLA) to patients with moderate to severe atopic dermatitis. The primary objective of the study was to compare the efficacy of orally administered DS107G capsules, versus placebo, in the treatment of adult patients with moderate to severe atopic dermatitis. The secondary objective was to assess the safety of orally administered DS107G capsules, versus placebo, in adult patients with moderate to severe atopic dermatitis. The primary study endpoint was the proportion of patients achieving an IGA (Investigator Global Assessment) of 0 (clear) or 1 (almost clear) and a decrease of at least 2 points in IGA at week 8. Secondary study endpoints included:
Approximately 100 patients with moderate to severe atopic dermatitis were included in this multicenter, double-blind, placebo controlled, phase IIa study. All subjects signed an informed consent and underwent screening for study eligibility. Subjects were randomized (1:1) at baseline visit to either receive oral DS107G 2 g or placebo, once daily for 8 weeks in a fasting state.
Subjects visited the clinic on 6 occasions: at screening, baseline, week 2, week 4, week 8 (end of treatment/early termination) and week 10 (follow-up). All subjects exited the study at the week 10 visit. The primary efficacy variable was the proportion of patients achieving an IGA of 0 (clear) or 1 (almost clear), and a decrease of at least 2 points in IGA at week 8. Secondary efficacy variables included: IGA at other visits, pruritus (obtained from the SCORAD visual analog scale), EASI, BSA, POEM, DLQI, SCORAD and TEWL (for selected sites only). Safety was assessed through adverse events, physical examination, vital signs and safety laboratory tests (including pregnancy tests for women of childbearing potential), Pharmacokinetic samples were obtained at Baseline (Day 0), week 4 and week 8 visits in order to measure total and free DGLA plasma trough levels. Separate plasma samples were retained for later analysis of total fatty acid profile and interleukin profile.
The EASI is a composite score ranging from 0-72 that takes into account the degree of erythema, induration/papulation, excoriation, and lichenification (each scored from 0 to 3 separately) for each of four body regions, with adjustment for the percent of BSA involved for each body region and for the proportion of the body region to the whole body. A detailed procedure of EASI score calculation is provided below.
SCORAD is calculated as follows: Six items (erythema, edema/papulation, oozing/crusts, excoriation, lichenification, and dryness) are selected to evaluate the AD severity. The intensity of each item is graded using a 4-point scale:
The overall BSA affected by AD is evaluated (from 0 to 100%) and divided by 5. One patient's palm represents 1% of his/her total BSA. The maximum is 20.
Subjective items include loss of sleep and the occurrence of pruritus. These are evaluated by asking patients to indicate on the 10-cm scale (0-10) on the assessment form the point corresponding to the average value for the last three days/nights. The combined maximum score of these two is 20.
The sum of the above measures represents the SCORAD which can vary from 0 to 103. If the subjective scores of pruritus and loss of sleep are excluded, the SCORAD becomes objective SCORAD (score range 0-83).
Body Surface Area (BSA). The overall BSA affected by AD will be evaluated (from 0 to 100%) at each visit. One patient's palm represents 1% of his/her total BSA. For all study visits, except at screening, the BSA of involved skin will be measured with the SCORAD measurement and evaluated as a separate endpoint.
Subjects who fulfilled all the inclusion and none of the exclusion criteria were accepted in the study. Each subject read and signed an informed consent form prior to any screening procedures being performed. […]

[2] = system: spontaneous hypertensive rats; experiment: Arterial pressure in spontaneous hypertensive rats after seven days of gavage, with intravenous phenylephrine challenge; type: in vivo, rat; settings: DGLA 50 or 500 mg/kg alone; effect eliminated by aspirin
Procedure: An in vivo investigation of anti-hypertension efficacy following co-administration of DGLA and aspirin in spontaneous hypertensive rats was conducted. This experiment investigated the efficacy of DGLA when co-administered chronically with aspirin to reduce the hypertensive response induced acutely by phenylephrine in spontaneous hypertensive rats. Spontaneously hypertensive adult male rats (250-300 g), bred by Charles River Laboratories, were used for this assay. […] The animals were pair-housed by group (low dose+aspirin, high dose+aspirin or aspirin alone) for the duration of the oral gavage prior to surgery.
The test article was formulated using olive oil as the vehicle. This stock solution was then administered by oral gavage once per day for seven consecutive days. A low and a high dose (50 mg/kg and 500 mg/kg) were tested.
A 5 mg/ml stock solution of aspirin was prepared by dissolving the appropriate amount of aspirin in 100% DMSO which was then diluted in water. The concentration of DMSO was less than 1%. The appropriate volume was administered by oral gavage to each animal once per day for seven consecutive days. The stock solution was stored at room temperature and was considered stable for the duration of the gavage.
The appropriate volume was administered to each animal by an intravenous injection at the end of the experiment on the surgery day. The stock solution was stored at 4° C. and was considered stable for the duration of the experiment.
Male spontaneous hypertensive rats weighing approximately 300 g arrived at the facility at least two days before beginning the oral gavage. Animals were assigned to one of three groups (low dose+aspirin, high dose+aspirin, and aspirin), and were pair-housed during the acclimation period. […]
Rats were anesthetized with a 2.5-3.0% isoflurane-O2 mixture in an induction box. […] Blood pressure, systemic arterial pressure (SAP), and heart rate were monitored continuously for a total of half an hour. Hypertension was detected as an increase in diastolic, systolic or mean blood pressure. […]

[3] = Phase 1 food effect on single-dose plasma pharmacokinetics (1000 mg, fasted vs fed); type: in vivo, human
Procedure: The effect of food on the PK of an orally administered single dose of DS107G capsule in healthy subjects; and
Subjects were randomly assigned in a 3:1 ratio of DG107G to placebo by block randomization. Single dose part one of the study comprised three cohorts of eight subjects each, with the addition of Cohort four based on evaluation of the safety data of Cohort three by the Safety Monitoring Committee (SMC). A single oral dose of DS107G or matching placebo was administered to fasted subjects in Cohorts one to three (500, 1000, and 2000 mg, respectively) in parallel; subjects in Cohort four were administered a dose of 4000 mg following completion of Cohort three. Subjects in Cohort two received 1000 mg or matching placebo in the fed state at ≥14 days after the first dose.
Food effect was evaluated in Cohort two at least 14 days after the first dose at which time a second single dose was administered, Subjects were administered a 1000-mg dose of study drug with 240 mL of water after a 10-hour fasting period and 30 minutes after starting consumption of a meal. Subjects then refrained from food intake for at least 4 hours after dosing, Food consumption was standardized for at least 12 hours after dosing using a standardized high-fat meal (800 to 1000 kcal with 500 to 600 kcal from fat and 250 kcal from carbohydrates). A typical standard test meal consisted of two eggs fried in butter, two strips of bacon, two slices of toast with butter, 120 mL of hash brown potatoes, and 240 mL of whole milk.
Subjects in Cohort two undergoing evaluation of the food effect on oral 1000 mg DGLA capsules were restricted from food consumption for at least 4 hours after dosing. Food consumption was standardized for at least 12 hours post dose using a standardized high-fat meal.

[4] = oral 2 g once daily 8 weeks, n 35

## CCCCC/C=C\C/C=C\C/C=C\CCCCCCC(=O)O [DGLA, Dihomo gamma linolenic acid]
[1]; Moderate at baseline
  IGA Non-Responders at Week 8, (%): (72.4) %
  IGA Responders at Week 8, (%): (27.6) %
  IGA Score Week 8: 0 - Clear, (%): (13.8) %
  IGA Score Week 8: 1 - Almost Clear, (%): (13.8) %
  IGA Score Week 8: 2 - Mild, (%): (20.7) %
  IGA Score Week 8: 3 - Moderate, (%): (13.8) %
  IGA Score Week 8: 4 - Severe, (%): (3.4) %
  IGA Score Week 8: 5 - Very Severe, (%): (0.0) %
[1]; Very Severe/Severe at baseline
  IGA Non-Responders at Week 8, (%): (72.7) %
  IGA Score Week 8: 0 - Clear, (%): (0.0) %
  IGA Score Week 8: 1 - Almost Clear, (%): (13.6) %
  IGA Score Week 8: 2 - Mild, (%): (13.6) %
  IGA Score Week 8: 3 - Moderate, (%): (27.3) %
  IGA Score Week 8: 4 - Severe, (%): (13.6) %
  IGA Score Week 8: 5 - Very Severe, (%): (4.5) %
[1]; Very Severe/Severe at baseline, p-value 0.542
  IGA Responders at Week 8, (%): (27.3) %
[1]; total population (N = 51)
  IGA Non-Responders at Week 8, (%): (72.5) %
  IGA Score Week 8: 0 - Clear, (%): (7.8) %
  IGA Score Week 8: 1 - Almost Clear, (%): (13.7) %
  IGA Score Week 8: 2 - Mild, (%): (17.6) %
  IGA Score Week 8: 3 - Moderate, (%): (19.6) %
  IGA Score Week 8: 4 - Severe, (%): (7.8) %
  IGA Score Week 8: 5 - Very Severe, (%): (2.0) %
[1]; total population, decrease of at least 2 points in IGA score, p-value 0.065 (Cochran-Mantel-Haenszel), 0.228 (Fisher Exact)
  IGA Responders at Week 8, (%): (27.5) %
[1]; Table 9A (Week 4), n 35
  Visual analog scale of pruritus, Week 8/ET Actual, Mean: 4.6
  Visual analog scale of pruritus, Week 8/ET Actual, Median: 4.0
[1]; Table 9B (Week 8), n 35
  Visual analog scale of pruritus, Week 8/ET Actual, Mean: 4.6
  Visual analog scale of pruritus, Week 8/ET Actual, Median: 4.0
[1]; Week 8/ET, ANCOVA, p-value 0.831 vs placebo
  EASI, Change from baseline, LSMEANS: −8.0
[1]; intent to treat analysis, overall, p=0.057
  Primary efficacy end point (two point drop in IGA and end of treatment IGA of 0 or 1) over placebo: clinically significant trend
[1]; moderate patient subgroup (n=67), p=0.036
  Primary efficacy end point (two point drop in IGA and end of treatment IGA of 0 or 1) over placebo: statistically significant improvement
[1]; [4]
  Body surface area affected by atopic dermatitis, Week 8/ET Actual, Median: 12.0
  EASI, Week 8/ET Actual, Median: 7.4
  Eczema area and severity index (EASI), Week 8/ET Actual, Mean: 9.3
[1]; within four weeks of dosing, p=0.015
  Pruritus score [visual analog scale]: statistically significant reduction of itch
[2]
  Effect on arterial pressure in spontaneously hypertensive rats: successfully decreases the arterial pressure
[3]; single 1000 mg dose
  Free DGLA Cmax occurred sooner under fasted than fed conditions (median): 1 h
  Mean baseline-corrected free DGLA Cmax, fasted over fed: about 3 fold
  Mean baseline-corrected total DGLA AUC0-24, fasted over fed: about 1,8 fold
  Mean baseline-corrected total DGLA Cmax, fasted over fed: about 1.5 fold
  Mean free DGLA baseline-corrected AUC0-24, fasted over fed: about 2 fold
[3]; single 1000 mg dose, fasted
  Mean baseline-corrected AUC0-24, total DGLA over free DGLA: ~54 fold
  Mean baseline-corrected Cmax, total DGLA over free DGLA: ~10 fold
[3]; single 1000 mg dose, fed
  Mean baseline-corrected AUC0-24, total DGLA over free DGLA: ~56 fold
  Mean baseline-corrected Cmax, total DGLA over free DGLA: ~20 fold
[3]; single 1000-mg dose
  Rate and extent of total DGLA absorption (mean Cmax and AUC0-24), fasted higher than fed: approximately 50%
